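48-hour exposure; five concentrations; linearly interpolated endpoints. Abbreviation: GI50, concentration required for 50% inhibition of growth. TGI: concentration producing complete growth inhibition.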
Legend:
Test in all cases: DTP human tumour cell line panel, 48 h
786-0 renal = tested on: 786-0 renal
A498 renal = tested on: A498 renal
A549 NSCLC = tested on: A549 NSCLC
ACHN renal = tested on: ACHN renal
BT-549 breast = tested on: BT-549 breast
CCRF-CEM leukemia = tested on: CCRF-CEM leukemia
COLO 205 colon = tested on: COLO 205 colon
DU-145 prostate = tested on: DU-145 prostate
EKVX NSCLC = tested on: EKVX NSCLC
HCC-2998 colon = tested on: HCC-2998 colon
HCT-116 colon = tested on: HCT-116 colon
HCT-15 colon = tested on: HCT-15 colon
HL-60(TB) leukemia = tested on: HL-60(TB) leukemia
HOP-62 NSCLC = tested on: HOP-62 NSCLC
HOP-92 NSCLC = tested on: HOP-92 NSCLC
HS 578T breast = tested on: HS 578T breast
HT29 colon = tested on: HT29 colon
IGROV1 ovarian = tested on: IGROV1 ovarian
K-562 leukemia = tested on: K-562 leukemia
KM12 colon = tested on: KM12 colon
LOX IMVI melanoma = tested on: LOX IMVI melanoma
M14 melanoma = tested on: M14 melanoma
MALME-3M melanoma = tested on: MALME-3M melanoma
MCF7 breast = tested on: MCF7 breast
MDA-MB-231 breast = tested on: MDA-MB-231 breast
MDA-MB-435 = tested on: MDA-MB-435
MOLT-4 leukemia = tested on: MOLT-4 leukemia
NCI-H226 lung = tested on: NCI-H226 lung
NCI-H23 lung = tested on: NCI-H23 lung
NCI-H460 lung = tested on: NCI-H460 lung
NCI-H522 lung = tested on: NCI-H522 lung
NCI/ADR-RES ovarian = tested on: NCI/ADR-RES ovarian
OVCAR-3 ovarian = tested on: OVCAR-3 ovarian
OVCAR-4 ovarian = tested on: OVCAR-4 ovarian
OVCAR-5 ovarian = tested on: OVCAR-5 ovarian
OVCAR-8 ovarian = tested on: OVCAR-8 ovarian
PC-3 prostate = tested on: PC-3 prostate
RPMI-8226 leukemia = tested on: RPMI-8226 leukemia
RXF 393 renal = tested on: RXF 393 renal
SF-268 CNS = tested on: SF-268 CNS
SF-295 CNS = tested on: SF-295 CNS
SF-539 CNS = tested on: SF-539 CNS
SK-MEL-2 melanoma = tested on: SK-MEL-2 melanoma
SK-MEL-28 melanoma = tested on: SK-MEL-28 melanoma
SK-MEL-5 melanoma = tested on: SK-MEL-5 melanoma
SK-OV-3 ovarian = tested on: SK-OV-3 ovarian
SN12C renal = tested on: SN12C renal
SNB-19 CNS = tested on: SNB-19 CNS
SNB-75 CNS = tested on: SNB-75 CNS
SR leukemia = tested on: SR leukemia
SW-620 colon = tested on: SW-620 colon
T-47D breast = tested on: T-47D breast
TK-10 renal = tested on: TK-10 renal
U251 CNS = tested on: U251 CNS
UACC-257 melanoma = tested on: UACC-257 melanoma
UACC-62 melanoma = tested on: UACC-62 melanoma
UO-31 renal = tested on: UO-31 renal

In the case of COc1ccc2cc(Cn3cc[n+](Cc4ccc5ccccc5c4)c3)ccc2c1, the GI50 (786-0 renal) is reported as 4.72 µM, the TGI (786-0 renal) is reported as 19.6 µM and the GI50 (A498 renal) is reported as 1.03 µM. The TGI (A498 renal) was 9.13 µM, the GI50 (A549 NSCLC) was 8.16 µM and the TGI (A549 NSCLC) was 23.7 µM. The GI50 (ACHN renal) was 14.3 µM, the TGI (ACHN renal) was 30.4 µM and the GI50 (BT-549 breast) was 1.96 µM. The TGI (BT-549 breast) was 4.17 µM, the GI50 (CCRF-CEM leukemia) was 2.66 µM and the TGI (CCRF-CEM leukemia) was 10.4 µM. For the same molecule, the GI50 (COLO 205 colon) was 1.44 µM, the TGI (COLO 205 colon) was 3.28 µM and the GI50 (DU-145 prostate) was 4.49 µM. The TGI (DU-145 prostate) was 16.9 µM, the GI50 (EKVX NSCLC) was 3.71 µM and the TGI (EKVX NSCLC) was 15.5 µM. It also gave a GI50 (HCC-2998 colon) of 2.11 µM, a TGI (HCC-2998 colon) of 5.28 µM and a GI50 (HCT-116 colon) of 2.23 µM. The TGI (HCT-116 colon) was 7.43 µM, the GI50 (HCT-15 colon) was 15.8 µM and the TGI (HCT-15 colon) was 32.4 µM. For the same molecule, the GI50 (HL-60(TB) leukemia) was 1.34 µM, the TGI (HL-60(TB) leukemia) was 3.89 µM and the GI50 (HOP-62 NSCLC) was 4.23 µM. It also gave a TGI (HOP-62 NSCLC) of 20.9 µM, a GI50 (HOP-92 NSCLC) of 0.672 µM and a TGI (HOP-92 NSCLC) of 3.33 µM. For the same molecule, the GI50 (HS 578T breast) was 2.32 µM, the TGI (HS 578T breast) was 9.92 µM and the GI50 (HT29 colon) was 1.76 µM. The TGI (HT29 colon) was 8.23 µM, the GI50 (IGROV1 ovarian) was 1.75 µM and the TGI (IGROV1 ovarian) was 4.87 µM. For the same molecule, the GI50 (K-562 leukemia) was 3.51 µM, the TGI (K-562 leukemia) was 16.3 µM and the GI50 (KM12 colon) was 1.72 µM. The TGI (KM12 colon) was 3.43 µM, the GI50 (LOX IMVI melanoma) was 1.5 µM and the TGI (LOX IMVI melanoma) was 2.86 µM. It also gave a GI50 (M14 melanoma) of 1.77 µM, a TGI (M14 melanoma) of 4.21 µM and a GI50 (MALME-3M melanoma) of 1.53 µM. The TGI (MALME-3M melanoma) was 4.03 µM, the GI50 (MCF7 breast) was 2.57 µM and the TGI (MCF7 breast) was 9.88 µM. The GI50 (MDA-MB-231 breast) was 1.55 µM, the TGI (MDA-MB-231 breast) was 3.81 µM and the GI50 (MDA-MB-435) was 1.79 µM. For the same molecule, the TGI (MDA-MB-435) was 4.12 µM, the GI50 (MOLT-4 leukemia) was 2.31 µM and the TGI (MOLT-4 leukemia) was 7.62 µM. It also gave a GI50 (NCI-H226 lung) of 2.97 µM, a TGI (NCI-H226 lung) of 16.4 µM and a GI50 (NCI-H23 lung) of 2.37 µM. It also gave a TGI (NCI-H23 lung) of 12 µM, a GI50 (NCI-H460 lung) of 3.24 µM and a TGI (NCI-H460 lung) of 12.7 µM. It also gave a GI50 (NCI-H522 lung) of 1.53 µM, a TGI (NCI-H522 lung) of 4.68 µM and a GI50 (NCI/ADR-RES ovarian) greater than 100 µM. For the same molecule, the TGI (NCI/ADR-RES ovarian) was greater than 100 µM, the GI50 (OVCAR-3 ovarian) was 1.62 µM and the TGI (OVCAR-3 ovarian) was 4.01 µM. It also gave a GI50 (OVCAR-4 ovarian) of 2.27 µM, a TGI (OVCAR-4 ovarian) of 8.06 µM and a GI50 (OVCAR-5 ovarian) of 2.7 µM. For the same molecule, the TGI (OVCAR-5 ovarian) was 12.5 µM, the GI50 (OVCAR-8 ovarian) was 3.26 µM and the TGI (OVCAR-8 ovarian) was 13.1 µM. The GI50 (PC-3 prostate) was 2.13 µM, the TGI (PC-3 prostate) was 9.17 µM and the GI50 (RPMI-8226 leukemia) was 1.33 µM. The TGI (RPMI-8226 leukemia) was 3.65 µM, the GI50 (RXF 393 renal) was 1.75 µM and the TGI (RXF 393 renal) was 4.59 µM. It also gave a GI50 (SF-268 CNS) of 2.53 µM, a TGI (SF-268 CNS) of 11.8 µM and a GI50 (SF-295 CNS) of 4.95 µM. It also gave a TGI (SF-295 CNS) of 21.9 µM, a GI50 (SF-539 CNS) of 2.37 µM and a TGI (SF-539 CNS) of 7.81 µM. For the same molecule, the GI50 (SK-MEL-2 melanoma) was 1.91 µM, the TGI (SK-MEL-2 melanoma) was 4.65 µM and the GI50 (SK-MEL-28 melanoma) was 2 µM. It also gave a TGI (SK-MEL-28 melanoma) of 5.05 µM, a GI50 (SK-MEL-5 melanoma) of 1.33 µM and a TGI (SK-MEL-5 melanoma) of 2.62 µM. It also gave a GI50 (SK-OV-3 ovarian) of 3.19 µM, a TGI (SK-OV-3 ovarian) of 12.6 µM and a GI50 (SN12C renal) of 2.53 µM. The TGI (SN12C renal) was 8.97 µM, the GI50 (SNB-19 CNS) was 1.93 µM and the TGI (SNB-19 CNS) was 6.65 µM. The GI50 (SNB-75 CNS) was 1.39 µM, the TGI (SNB-75 CNS) was 4.19 µM and the GI50 (SR leukemia) was 1.68 µM. For the same molecule, the TGI (SR leukemia) was 4.27 µM, the GI50 (SW-620 colon) was 3.12 µM and the TGI (SW-620 colon) was 14.1 µM. For the same molecule, the GI50 (T-47D breast) was 1.87 µM, the TGI (T-47D breast) was 7.56 µM and the GI50 (TK-10 renal) was 3.72 µM. For the same molecule, the TGI (TK-10 renal) was 15 µM, the GI50 (U251 CNS) was 2.79 µM and the TGI (U251 CNS) was 12.3 µM. The GI50 (UACC-257 melanoma) was 1.95 µM, the TGI (UACC-257 melanoma) was 5.09 µM and the GI50 (UACC-62 melanoma) was 1.49 µM. For the same molecule, the TGI (UACC-62 melanoma) was 3.25 µM, the GI50 (UO-31 renal) was 12.7 µM and the TGI (UO-31 renal) was 32.1 µM.

From PubChem BioAssay (NCI)
